According to patent US7314877B2, “Benzofuran derivative” (Kowa Co., Ltd., priority 2003, dated 2008):

Columns and labels:
[1] = system: TNF-α production; experiment: TNF-α production inhibitory effect in LPS-stimulated RAW264.7 cells (ELISA); assay type: cell-based; conditions: Mus musculus, 8 h, lipopolysaccharide 1 μg/mL, eight hours incubation, TNF-α in culture supernatant by ELISA
Procedure: Method for Determining TNF-α Production Inhibitory Effect
RAW264.7 cells were suspended in a DMEM medium supplemented with 10% fetal bovine serum (FBS), and the suspension was seeded in wells of a 24-well plate (5×10^5/mL/well). Each test compound (0 to 10 μM) was added to the wells, and the mixture was incubated in a CO2 incubator for 30 minutes. Subsequently, lipopolysaccharide was added to the mixture in an amount of 1 μg/mL, and incubation was further performed in a CO2 incubator for eight hours. Eight hours after the start of incubation, the culture supernatant was collected, and the amount of TNF-α contained in the culture broth was determined through ELISA. IC50 value was determined through comparison with the amount of produced TNF-α in the drug-free (blank) case.

[2] = Test on absorption after oral administration in mouse; assay type: in vivo; conditions: male ICR mouse, 10 mg/kg oral, suspension in 0.5% HPMC, plasma at 0.25, 0.5, 1 and 4 hours, HPLC; FIG. 1
Procedure: Test on Absorption after Oral Administration in Mouse Each of the test compounds (Examples 7, 10, and 13) was suspended in 0.5% HPMC in a mortar. The suspension was orally administered to each male ICR mouse (6 weeks old) in an amount of 10 mg/kg. At each time of 0.25, 0.5, 1, and 4 hours after oral administration, a blood sample was collected and centrifuged, whereby a plasma sample was prepared. The level of the test compound in the plasma sample was determined through HPLC.

IC50 [1] [µM]	melting point	absorption after oral administration (level of test compound in plasma) [2]	Structure (SMILES)
3.1	179 to 180 °C		CN1CCN(Cc2cc(-c3ccc4c(c3)CCO4)nn(Cc3ccc(F)cc3)c2=O)CC1 [Example 6, 2-(4-fluorobenzyl)-6-(2,3-dihydro-1-benzofuran-5-yl)-4-(4-methyl-1-piperazinyl)methyl-2H-pyridazin-3-one]
	201 to 204 °C (dec.)	good absorbability	CN1CCN(Cc2cc(-c3ccc4c(c3)CCO4)nn(Cc3ccc(F)cc3)c2=O)CC1.Cl.Cl [Example 7, 2-(4-fluorobenzyl)-6-(2,3-dihydro-1-benzofuran-5-yl)-4-(4-methyl-1-piperazinyl)methyl-2H-pyridazin-3-one dihydrochloride]
	149 to 150 °C		CN1CCN(Cc2cc(-c3ccc4c(c3)CCO4)nn(Cc3ccc(Cl)cc3)c2=O)CC1 [Example 8, 2-(4-chlorobenzyl)-6-(2,3-dihydro-1-benzofuran-5-yl)-4-(4-methyl-1-piperazinyl)methyl-2H-pyridazin-3-one]
	128 to 130 °C		CN1CCN(Cc2cc(-c3ccc4occc4c3)nn(Cc3ccc(F)cc3)c2=O)CC1 [Example 11, 6-(1-benzofuran-5-yl)-2-(4-fluorobenzyl)-4-(4-methyl-1-piperazinyl)methyl-2H-pyridazin-3-one]
7.5	141.4 to 142.1 °C		CN1CCN(Cc2cc(-c3ccc4c(c3)CCO4)nn(Cc3ccccc3Cl)c2=O)CC1 [Example 17, 2-(2-chlorobenzyl)-6-(2,3-dihydro-1-benzofuran-5-yl)-4-(4-methyl-1-piperazinyl)methyl-2H-pyridazin-3-one]

Second part, the molecule before the results:

Structure (SMILES)	IC50 [1] [µM]	melting point	absorption after oral administration (level of test compound in plasma) [2]
CN1CCN(Cc2cc(-c3ccc4c(c3)CCO4)nn(CC3CC3)c2=O)CC1 [Example 1, 2-cyclopropylmethyl-6-(2,3-dihydro-1-benzofuran-5-yl)-4-(4-methyl-1-piperazinyl)methyl-2H-pyridazin-3-one]	8.9	128 to 130 °C	
CN(C)Cc1cc(-c2ccc3c(c2)CCO3)nn(CC2CC2)c1=O [Example 3, 2-cyclopropylmethyl-6-(2,3-dihydro-1-benzofuran-5-yl)-4-dimethylaminomethyl-2H-pyridazin-3-one]		109 to 110 °C	
CN1CCN(Cc2cc(-c3ccc4c(c3)CCO4)nn(CC=Cc3ccc(Cl)cc3)c2=O)CC1 [Example 9, 2-(4-chlorocinnamyl)-6-(2,3-dihydro-1-benzofuran-5-yl)-4-(4-methyl-1-piperazinyl)methyl-2H-pyridazin-3-one]	4.2	112 to 113 °C	
CN1CCN(Cc2cc(-c3ccc4c(c3)CCO4)nn(CC=Cc3ccc(Cl)cc3)c2=O)CC1.Cl.Cl [Example 10, 2-(4-chlorocinnamyl)-6-(2,3-dihydro-1-benzofuran-5-yl)-4-(4-methyl-1-piperazinyl)methyl-2H-pyridazin-3-one dihydrochloride]			good absorbability
CN1CCN(Cc2cc(-c3ccc4c(c3)CCO4)nn(CCCc3ccccc3Cl)c2=O)CC1 [Example 12, 2-[3-(2-chlorophenyl)propyl]-6-(2,3-dihydro-1-benzofuran-5-yl)-4-(4-methyl-1-piperazinyl)methyl-2H-pyridazin-3-one]	2.2		
CN1CCN(Cc2cc(-c3ccc4c(c3)CCO4)nn(CCCc3ccccc3Cl)c2=O)CC1.Cl.Cl [Example 13, 2-[3-(2-chlorophenyl)propyl]-6-(2,3-dihydro-1-benzofuran-5-yl)-4-(4-methyl-1-piperazinyl)methyl-2H-pyridazin-3-one dihydrochloride]			good absorbability
NCc1cc(-c2ccc3c(c2)CCO3)nn(Cc2ccccc2Cl)c1=O [Example 18, 4-aminomethyl-2-(2-chlorobenzyl)-6-(2,3-dihydro-1-benzofuran-5-yl)-2H-pyridazin-3-one]	7.5	120.1 to 122.8 °C	
